Among the test systems are SN12C; UACC-62; SNB-75; RXF 393; SK-MEL-5; KM12; A498; SF-539; SW-620; CCRF-CEM; SK-MEL-2; HT-29; T47D; MDA-N; Malme-3M; EKVX; ACHN; OVCAR-4; Hs-578T; COLO 205.
Experiment in all cases: DTP human tumour cell line panel, 48 h

Structures are written as SMILES.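 How tested: cells in 96-well plates exposed to compound for 48 hours at five concentrations. Abbreviation: GI50, concentration required for 50% inhibition of growth.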 The source made the active and inactive calls. Cut-off read from the data, not from the text of the source: active = GI50 up to about 1.1 µM and inactive = higher.

As usually defined, the GI50 is the concentration giving 50% growth inhibition. On to `COC(=O)C1OC(SCCN)C(O)C(O)C1O` (stereo not given), for which the GI50 in the experiment with SN12C, in the experiment on UACC-62, in the experiment with SNB-75, in the experiment on RXF 393, with SK-MEL-5 and in the experiment with KM12 was > 100 µM (inactive) throughout. In addition, the GI50 in the experiment on A498, in the experiment with SF-539, with SW-620, with CCRF-CEM, with SK-MEL-2 and in the experiment on HT-29 was > 100 µM (inactive) throughout. Besides, the GI50 in the experiment on T47D, in the experiment on MDA-N, with Malme-3M, in the experiment with EKVX, in the experiment on ACHN and with OVCAR-4 was > 100 µM (inactive) throughout. For the same molecule, the GI50 with Hs-578T and with COLO 205 was > 100 µM (inactive) in each case.
For `COc1ccc(/C=C/C2=NN(c3cccc(S(=O)(=O)O)c3)C3(C2)SCC(=O)N3c2nc3ccccc3s2)cc1` (stereo not given), the GI50 is > 100 µM (inactive) with SN12C; 54.3 µM (inactive) in the experiment with UACC-62; > 100 µM (inactive) in the experiment with SNB-75; > 100 µM (inactive) in the experiment on RXF 393; 58.9 µM (inactive) in the experiment with SK-MEL-5; > 100 µM (inactive) in the experiment with KM12. Besides, the GI50 with A498 was 57 µM (inactive); in the experiment with SF-539, 33.2 µM (inactive); in the experiment with SW-620 it was > 100 µM (inactive); in the experiment with CCRF-CEM it was 17.3 µM (inactive); in the experiment with SK-MEL-2 it was 95.5 µM (inactive); in the experiment on HT-29, > 100 µM (inactive). The GI50 is 16.5 µM (inactive) in the experiment on T47D; > 100 µM (inactive) in the experiment with MDA-N; > 100 µM (inactive) in the experiment on Malme-3M; 64.7 µM (inactive) with EKVX; 69 µM (inactive) in the experiment with ACHN; 53.1 µM (inactive) in the experiment on OVCAR-4. For the same molecule, the GI50 in the experiment with Hs-578T and in the experiment with COLO 205 was > 100 µM (inactive) throughout.
With `NC(=S)N/N=C1\CCCCC1C(O)(C(F)(F)Cl)C(F)(F)Cl` (stereo not given), the GI50 in the experiment on SN12C, in the experiment on UACC-62, in the experiment with SNB-75, with RXF 393, with SK-MEL-5 and in the experiment on KM12 was > 10 µM (inactive) in each case. Further, the GI50 in the experiment on A498, in the experiment with SF-539, in the experiment with SW-620, in the experiment with CCRF-CEM, in the experiment on SK-MEL-2 and in the experiment with HT-29 was > 10 µM (inactive) throughout. Further, the GI50 with T47D, in the experiment with MDA-N, in the experiment on Malme-3M, in the experiment with EKVX, in the experiment on ACHN and in the experiment on OVCAR-4 was > 10 µM (inactive) each time. The GI50 in the experiment on Hs-578T and with COLO 205 was > 10 µM (inactive) throughout.
As for `Clc1ccc2ns[s+]c2c1`, the GI50 in the experiment with SN12C was 19.4 µM (inactive); in the experiment with UACC-62, 0.275 µM (active); in the experiment on SNB-75 it was > 79.3 µM (inactive); in the experiment with RXF 393, > 100 µM (inactive); in the experiment on SK-MEL-5 it was 15.5 µM (inactive); in the experiment on KM12, 3.66 µM (inactive). Besides, the GI50 with A498 was > 100 µM (inactive); in the experiment with SF-539, 3.53 µM (inactive); in the experiment with SW-620 it was 6.62 µM (inactive); with CCRF-CEM it was 1.27 µM (inactive); in the experiment with SK-MEL-2 it was 9.35 µM (inactive); with HT-29, 3.39 µM (inactive). Also, the GI50 with T47D was 11.7 µM (inactive); in the experiment with MDA-N, 3.4 µM (inactive); in the experiment with Malme-3M, 32.2 µM (inactive); in the experiment on EKVX, 17.7 µM (inactive); with ACHN it was 0.449 µM (active); in the experiment on OVCAR-4, 22.4 µM (inactive). The values for the GI50 in the experiment with Hs-578T and in the experiment on COLO 205 were 78 µM (inactive) and 1.79 µM (inactive), respectively.
In the case of `COC(=O)c1ccc(/C=C/c2cc(O)ccc2O)cc1`, the GI50 was 2.38 µM (inactive) in the experiment with SN12C; 2.87 µM (inactive) with UACC-62; 15 µM (inactive) with SNB-75; 2.25 µM (inactive) in the experiment on RXF 393; 3.82 µM (inactive) in the experiment with SK-MEL-5; 3.81 µM (inactive) with KM12. The GI50 in the experiment on A498 was 5.15 µM (inactive); with SF-539, 1.6 µM (inactive); with SW-620, 3.69 µM (inactive); in the experiment with CCRF-CEM, 0.242 µM (active); in the experiment on SK-MEL-2 it was 14.3 µM (inactive); in the experiment on HT-29, 30.3 µM (inactive). The GI50 in the experiment on T47D is 1.6 µM (inactive); in the experiment with MDA-N it was 3.44 µM (inactive); in the experiment with Malme-3M, 0.923 µM (active); in the experiment with EKVX, 2.37 µM (inactive); with ACHN it was 3.19 µM (inactive); in the experiment on OVCAR-4, 4.5 µM (inactive). Moreover, the GI50 in the experiment with Hs-578T was 4.95 µM (inactive); in the experiment with COLO 205 it was 4.97 µM (inactive).
Take `NC(Cc1c[nH]c(I)n1)C(=O)O` (stereo not given): the GI50 in the experiment on SN12C is > 100 µM (inactive); in the experiment with UACC-62, > 100 µM (inactive); in the experiment on SNB-75 it was 25.6 µM (inactive); in the experiment on RXF 393, 45.2 µM (inactive); in the experiment with SK-MEL-5, 82.2 µM (inactive); with KM12, > 100 µM (inactive). The GI50 in the experiment on A498 was > 100 µM (inactive); in the experiment with SF-539 it was 37.4 µM (inactive); with SW-620, 30 µM (inactive); in the experiment with CCRF-CEM it was 22.1 µM (inactive); with SK-MEL-2, > 100 µM (inactive); in the experiment on HT-29, > 100 µM (inactive). The GI50 with T47D is 90.6 µM (inactive); in the experiment on MDA-N, > 100 µM (inactive); in the experiment with Malme-3M, 17.7 µM (inactive); in the experiment with EKVX it was 42.7 µM (inactive); in the experiment on ACHN, > 100 µM (inactive); with OVCAR-4, 49.9 µM (inactive). In addition, the GI50 with Hs-578T is 23.8 µM (inactive); in the experiment on COLO 205, > 100 µM (inactive).
For `N=C(N)N/N=C/c1c(-c2ccc(Cl)cc2)nc2n1CCS2`, the GI50 in the experiment on SN12C was 14.3 µM (inactive); in the experiment with UACC-62 it was 11.9 µM (inactive); in the experiment with SNB-75, 13.3 µM (inactive); with RXF 393, 9.29 µM (inactive); in the experiment on SK-MEL-5, 3.32 µM (inactive); in the experiment on KM12 it was 10.9 µM (inactive). Further, the GI50 in the experiment with A498 was 12.7 µM (inactive); in the experiment on SF-539, 11.7 µM (inactive); in the experiment on SW-620, 5.89 µM (inactive); in the experiment with CCRF-CEM, 2.43 µM (inactive); in the experiment with SK-MEL-2, 10.8 µM (inactive); in the experiment with HT-29 it was 8.87 µM (inactive). The GI50 in the experiment with T47D was 13.6 µM (inactive); in the experiment with MDA-N, 11 µM (inactive); with Malme-3M, 14.6 µM (inactive); in the experiment on EKVX, 16.6 µM (inactive); with ACHN, 14.1 µM (inactive); with OVCAR-4 it was 15.3 µM (inactive). Also, the GI50 with Hs-578T is 24.3 µM (inactive); in the experiment on COLO 205 it was 4.38 µM (inactive).
Regarding `C=CC/C=C/Cc1csc(C(C)(C)C(O)C/C=C/C(=C)CCNC(=O)OC)n1` (stereo not given), the GI50 with SN12C is > 100 µM (inactive); in the experiment with UACC-62 it was 44.4 µM (inactive); in the experiment with SNB-75 it was 43 µM (inactive); in the experiment on RXF 393 it was > 63.4 µM (inactive); with SK-MEL-5 it was 1.17 µM (inactive); in the experiment on KM12, > 60.3 µM (inactive). In addition, the GI50 was > 60.5 µM (inactive) in the experiment with A498; > 100 µM (inactive) with SF-539; 26.7 µM (inactive) in the experiment with SW-620; 34.9 µM (inactive) in the experiment on CCRF-CEM; > 100 µM (inactive) with SK-MEL-2; 48.8 µM (inactive) in the experiment with HT-29. The GI50 is > 100 µM (inactive) in the experiment on T47D; 45.8 µM (inactive) with MDA-N; > 91.8 µM (inactive) in the experiment on Malme-3M; 27.9 µM (inactive) in the experiment on EKVX; 49.7 µM (inactive) in the experiment on ACHN; > 57.3 µM (inactive) with OVCAR-4. The GI50 was > 100 µM (inactive) in the experiment with Hs-578T and 59.7 µM (inactive) in the experiment with COLO 205.
